Laboratory results published in patent US20040097539A1, “Hsp inductor” (priority 2001, published 2004).

How the values were obtained:
Male SD rats [1] = assay: Carrageenin edema test; assay type: in vivo; conditions: oral, 1 hr before 1% carrageenin in footpad, foot volume after 2 hr and 3 hr
Method: Male SD rats (6-week-old, CLEA Japan) were used (6 rats per group). The carrageenin edema test was performed in accordance with the method of Winter et al. (Proc. Soc. Exp. Biol. Med., 111, 544-547, 1962). The volume of the footpad of the right hind limb was measured. Then, the test compound was orally administered (1.0 mL/100 g body weight), and immediately thereafter, water was orally administered to 5 mL/rat. Vehicle alone was orally administered to control group. After 1 hr., 0.05 mL of saline containing 1% carrageenin was subcutaneously injected into the footpad of the right hind limb to induce edema. After 2 hr. and 3 hr., the volume of the footpad of the right hind limb was measured. For the effects of the compound, the difference in the volume of the foot before and 2 hr. and 3 hr. after the carrageenin injection was determined, from which inhibitory rate (%) relative to the control group was calculated, and ID30 was determined.

HSP27 gene expression = assay: HSP27-inducing activity in gastric mucosa (TaqMan PCR); assay type: in vivo; conditions: rats, oral 30 mg/ml, gastric mucosa 2 hr after administration
Method: Compound A (30 mg/ml) and vehicle were orally administered to rats. After 2 hr., stomach was excised from the rats, opened and washed with ice-cooled physiological saline. Gastric mucosa was taken from the stomach using sterilized cover glass, and immediately suspended in ISOGEN (Wako Pure Chemical Industries, Ltd.). Total RNA was prepared from the gastric mucosa according to instructions, and purified by RNAeasy Midi Kit (QIAGEN). Then cDNA was synthesized from the total RNA using TaqMan Gold RT-PCR Kit (Applied Biosystems), and subjected to TaqMan PCR using ABI7700 (Applied Biosystems), based on which the amount of HSP 27 gene expression was determined. Forward primer used was 5′-[…]-3′ (SEQ ID NO:1), Reverse primer used was 5′-[…]-3′ (SEQ ID NO:2), and TaqMan probe used was 5′-[…]-3′ (SEQ ID NO:3) labeled with FAM (6-carboxyfluorescein). Additionally, the amount of GAPDH gene expression was determined using TaqMan Rodent GAPDH Control Reagents VIC probe (Applied Biosystems) and G3PDH cDNA Control probe (CLONTECH), and the amount was employed as an internal control. The amount of HSP27 gene expression is shown by the values calibrated with an amount of internal control (i.e., GAPDH gene) expression (Table 4).

human COX-2 = target: T1, human COX-2 (Homo sapiens, UniProt P35354); assay: COX-2 inhibiting activity (chemiluminescence, microsome fractions); assay type: biochemical; conditions: microsome fractions from COX-2 expressing Sf-21 cells, 37° C. 25 min preincubation, arachidonic acid
T1 construct: made in house; host or cells: Sf-21 insect cells, recombinant baculovirus BAC-COX2 (pFASTBAC1), microsome fraction
T1 sequence (P35354 18-604): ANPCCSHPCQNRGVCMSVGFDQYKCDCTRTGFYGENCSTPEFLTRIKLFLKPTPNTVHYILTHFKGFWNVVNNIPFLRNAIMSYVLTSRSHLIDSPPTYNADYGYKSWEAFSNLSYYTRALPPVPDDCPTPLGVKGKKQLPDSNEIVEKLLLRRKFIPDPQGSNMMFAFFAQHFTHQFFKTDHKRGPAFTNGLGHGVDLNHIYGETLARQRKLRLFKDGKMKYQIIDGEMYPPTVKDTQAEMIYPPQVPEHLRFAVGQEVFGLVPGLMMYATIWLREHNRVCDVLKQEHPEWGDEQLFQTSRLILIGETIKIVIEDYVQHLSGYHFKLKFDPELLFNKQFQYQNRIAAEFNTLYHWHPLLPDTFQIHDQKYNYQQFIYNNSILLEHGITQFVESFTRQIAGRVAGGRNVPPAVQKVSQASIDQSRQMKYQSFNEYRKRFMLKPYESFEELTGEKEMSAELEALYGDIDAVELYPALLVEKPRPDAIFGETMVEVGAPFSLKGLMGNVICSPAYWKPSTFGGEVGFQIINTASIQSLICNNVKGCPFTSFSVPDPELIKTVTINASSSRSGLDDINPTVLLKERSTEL
Method: A 1.8 kb DNA fragment containing human COX-2 cDNA (Proc. Natl. Acad. Sci. U.S.A., 89 (16), 7384-7388-(1992)) prepared by the PCR method was inserted into plasmid pFASTBAC1 (CIBCOBRAL) to obtain a plasmid pFBCOX2.
Using the plasmid pFBCOX2 and BAC-TO-BAC Baculovirus Expression System (GIBCOBRAL), a virus stock BAC-COX2 of the recombinant baculovirus was prepared.
Sf-21 cells were inoculated in 125 mL of LSf-900 II SFM medium (GIBCOBRAL) at a concentration of 1×10^6 cells/mL, and the medium was incubated at 27° C. for 24 hrs. 0.75 mL of the virus stock BAC-COX2 of the recombinant baculovirus was added, and was incubated for additional 72 hrs. The cells were separated from the medium by centrifugation (3000 rpm, 10 min.), and washed twice with PBS. The cells were suspended in 10 mL of a Lysis buffer (0.1 M Tris-HCl (pH 7.4), 5 mM EDTA), and were treated with a homogenizer (POLYTRON), three times at 20000 rpm for 20 sec. so that the cells were crushed. The supernatant thus obtained after centrifugation (2000 rpm, 10 min.) was further centrifuged (40000 rpm, 45 min.) to obtain a precipitate, which was resuspended in a Lysis buffer (0.1 M Tris-HCl (pH 7.4), 5 mM EDTA), and the suspension was stored at −80° C.
(§1) To a mixture of […] of a reaction buffer previously concentrated 10 times (1 M Tris-HCl (pH 8.0), 50 mM EDTA, 1.0% Tween 20, 50 mM luminol, 100 mM hematin), 20 mL of the microsome fractions (COX-1: 40 mg, COX-2: 20 mg), and […] of distilled water, a sample compound dissolved in DMF (5 mL) was added, and the mixture was left at 37° C. for 25 min. The reaction was started by the addition of 20 mM arachidonic acid ([…]), and chemiluminescence amount during the 10-second period after the addition of arachidonic acid was determined by the use of Lumistar (BMG Lab technologies, GmbH). The inhibition rate was calculated, regarding that the enzyme activity when DMF ([…]) was added was 100%, and the enzyme activity was 0% when 4 mM flurbiprofen (5 mL) was added.

human COX-1 = target: T2, human COX-1 (Homo sapiens, UniProt P23219); assay: COX-1 inhibiting activity (chemiluminescence, microsome fractions); assay type: biochemical; conditions: microsome fractions from COX-1 expressing Sf-21 cells, 37° C. 25 min preincubation, arachidonic acid
T2 construct: made in house; host or cells: Sf-21 insect cells, recombinant baculovirus BAC-COX1 (pFASTBAC1), microsome fraction
Method: A 1.8 kb DNA fragment containing human COX-1 cDNA (FASEB J., 5 (9), 2304-2312 (1991)) prepared by the PCR method was inserted into plasmid pFASTBAC1 (CIBCOBRL) to obtain a plasmid pFBCOX1.
Using the plasmid pFBCOX1 and BAC-TO-BAC Baculovirus Expression System (GIBCOBRL), a virus stock BAC-COX1 of the recombinant baculovirus was prepared.
Sf-21 cells were inoculated in 125 mL of Sf-900 II SFM medium (GIBCOBRL) at a concentration of 1×10^6 cells/mL, and the medium was incubated at 27° C. for 24 hrs. 0.75 mL of the virus stock BAC-COX1 of the recombinant baculovirus was added, and the mixture was incubated for additional 72 hrs. The cells were separated from the medium by centrifugation (3000 rpm, 10 min.), and washed with PBS twice. The cells were suspended in 10 mL of a lysis buffer (0.1 M Tris-HCl (pH 7.4), 5 mM EDTA), and were treated with a homogenizer (POLYTRON) three times at 20000 rpm for 20 seconds so that the cells were crushed. The supernatant obtained after centrifugation (2000 rpm, 10 min.) was further centrifuged (40000 rpm, 45 min.) to give a precipitate, which was resuspended in a Lysis buffer (0.1 M Tris-HCl (pH 7.4), 5 mM EDTA), and the suspension was stored at −80° C.
as §1

Male ICR-mice = assay: Acetic acid rising method (analgesic activity); assay type: in vivo; conditions: oral, 30 min before 0.6% acetic acid i.p., rising and stretching counted for 20 min
Method: Male ICR-mice (5 weeks old, CLEA Japan) were used (1 group, 10 mice), and a sample was orally administered (0.2 mL/10 g, b.w.). After 30 min., 0.6% acetic acid solution was injected to mice intraperitoneally (0.1 mL/10 g, b.w.), and the mice were immediately transferred into an observation cage made of a transparent acrylic resin. The number of mice rising and stretching during the following period of 20 min. was counted. The repression rate (%) was calculated by comparing the average numbers between the sample groups and the control groups and ID50 value was calculated.

Male SD rats [2] = assay: Test for gastric mucosa disorder; assay type: in vivo; conditions: oral 300 mg/kg, stomach examined after 24 hr
Method: Male SD rats (6 rats, 7 weeks old, CLEA Japan) were used. The test compound was orally administered (5 mL/kg, b.w.) to the rats after 24 hr-fasting or without fasting. After 23.5 hrs., the rats were intravenously injected with Evan's Blue (0.5% Evan's Blue/saline, 1 mL/rat) without anesthesia. After 30 min., the rats were laparotomized and stomach was excised. Esophagus was clipped. A 1% formalin solution (8 mL) was infused to the esophagus, and duodenum was clipped. The stomach was immersed in a 1% formalin solution for 10 min. or more, and sectioned along the line from duodenum to greater curvature of the stomach. After washing the stomach, the total length (mm^2) of the site (hemorrhage site: detachment of mucosa-ulcer) stained with Evan's Blue was measured with a counter under a stereomicroscope and recorded.

T2 sequence (P23219 24-599): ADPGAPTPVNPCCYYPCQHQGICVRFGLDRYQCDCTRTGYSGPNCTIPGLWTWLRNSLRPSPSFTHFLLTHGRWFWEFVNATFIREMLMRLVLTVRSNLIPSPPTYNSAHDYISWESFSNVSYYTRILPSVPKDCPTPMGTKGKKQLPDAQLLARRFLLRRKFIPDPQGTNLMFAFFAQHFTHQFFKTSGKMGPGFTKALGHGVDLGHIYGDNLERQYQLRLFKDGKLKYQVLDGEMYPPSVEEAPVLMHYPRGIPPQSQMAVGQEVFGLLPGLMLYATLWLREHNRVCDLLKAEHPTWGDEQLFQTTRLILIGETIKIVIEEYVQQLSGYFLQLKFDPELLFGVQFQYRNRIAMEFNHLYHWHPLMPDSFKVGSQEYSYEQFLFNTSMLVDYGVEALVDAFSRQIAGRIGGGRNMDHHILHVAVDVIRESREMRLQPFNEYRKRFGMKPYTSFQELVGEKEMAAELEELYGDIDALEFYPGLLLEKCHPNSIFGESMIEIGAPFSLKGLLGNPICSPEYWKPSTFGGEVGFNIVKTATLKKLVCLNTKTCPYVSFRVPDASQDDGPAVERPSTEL

| IC50 (human COX-2) [nM] | IC50 (human COX-1) [nM] | Area of lesion (mm^2) (average), Administration after 24 hr-fasting (Male SD rats [2]; after 24 hr-fasting) | Area of lesion (mm^2) (average), Administration without fasting (Male SD rats [2]; without fasting) | SMILES | ID30 (Male SD rats [1]) [mg/kg] | HSP27/GAPDH (x10^4) (HSP27 gene expression; calibrated with GAPDH expression) | HSP27/GAPDH (% of control) (HSP27 gene expression; relative to vehicle) | ID50 (Male ICR-mice) [mg/kg] |
| --- | --- | --- | --- | --- | --- | --- | --- | --- |
| 380 | 450 | 0.2 | 0 | Cc1nn(-c2ccccn2)c2[nH]c3ccc(C(F)(F)F)cc3c(=O)c12 [Compound A, 3-Methyl-1-(2-pyridinyl)-6-(trifluoromethyl)-1,9-dihydro-4H-pyrazolo[3,4-b]quinolin-4-one] | 2.2 | 197 ± 20 | (277) % of control | 0.9 |
| 295 | 527 |  |  | Cc1nn(-c2ccccn2)c2[nH]c3cc(F)c(F)cc3c(=O)c12 [Compound B, 6,7-Difluoro-3-methyl-1-(2-pyridinyl)-1,9-dihydro-4H-pyrazolo[3,4-b]quinolin-4-one] |  |  |  |  |
| 213 | 263 |  |  | Cc1nn(-c2ccccn2)c2[nH]c3cc(F)c(Cl)cc3c(=O)c12 [Compound C, 6-Chloro-7-fluoro-3-methyl-1-(2-pyridinyl)-1,9-dihydro-4H-pyrazolo[3,4-b]quinolin-4-one] |  |  |  |  |
| 360 | 600 |  |  | O=c1c2cc(Cl)ccc2[nH]c2c1cnn2-c1ccccn1 [Compound D, 6-Chloro-1-(2-pyridinyl)-1,9-dihydro-4H-pyrazolo[3,4-b]quinolin-4-one] |  |  |  |  |
